Experiment [1] relates to glucose uptake in cultured cells. The experiment can be described thus: In vitro glucose uptake / hexose transport in cultured cells with xylose derivatives (Table 2). It counts as cell-based. The conditions noted are these: for EC50 / ECmax: EC = Effective concentration. How it is done:
Table 2 summarizes in vitro results obtained with some of these newly synthesized xylose derivatives.
(§1) Uptake assay of the tritiated glucose analogue, 2-deoxy-D-glucose, is routinely performed as described in [Sasson, S. and Cerasi, E. (1986) J. Biol. Chem. 261, 16827-16833].
All new compounds are screened and tested first in various insulin-sensitive cell cultures used routinely in the laboratory (skeletal muscle and adipose cell lines). In addition these drugs were tested in non-insulin-sensitive cells such as primary cultures of bovine and porcine vascular endothelial and smooth muscle cells. Active compounds were tested ex-vivo on isolated rat soleus muscles. All cell cultures and tissues were maintained under hyperglycemic condition prior to the addition of the test compounds. Dose-response and time-course experiments determine which of the derivatives are subsequently tested in animal models. For each potent compound the total cell content and plasma membrane abundance of GLUT-1 and GLUT-4 was determined, as described above. The same biotinylation technique was employed to determine the total and plasma membrane content of both transporters in isolated mouse or rat soleus muscles treated with potent compounds.

In the next experiment the test system is 3T3-L1 adipocytes. As to the kind of experiment: Screening of methylated xylose derivatives, dGlc uptake assay (Table 1). The class given is cell-based. The conditions noted are these: Mean±SEM (n=3-6); for HEXOSE UPTAKE (Percent of Control) Without Insulin: 3T3-L1 adipocytes 24 hr at 20 mM glucose, test compounds 0.1-20.0 mM, 2-45 hr; for HEXOSE UPTAKE (Percent of Control) With Insulin: as E1, 500 nM insulin 30 min prior to uptake assay.
Text: There are five carbon atoms in xylose available for chemical modifications. Each of these atoms was methylated by modifications of published chemical procedures [Bollenback, G. N. (1963) In Methods in carbohydrate chemistry, vol. 2 (Whistler, R. L. and Wolfrom, M. L., eds.), pp. 326-331, Academic Press, New York; Bowering, W. and Timel, T. (1958) Can. J. Chem. 36, 283-285; Levine, P. and Raymomd, A. (1933) J. Biol. Chem. 102, 331-344; Takeo, K. (1992) Carbohyd. Res. 224, 311-318]. All compounds were purified by HPLC and their structure verified by NMR spectroscopy. […] At the end of the incubation period the cells were taken for a standard [^3H]-2-deoxy-D-glucose uptake assay in the absence or the presence of 500 nM insulin (30 min exposure prior to the uptake assay).
3T3-L1 adipocytes and L6 myotubes were maintained for 24 hr at 20 mM glucose. Test compounds were added (0.1-20.0 mM) and the cells were incubated further for 2-45 hr. At the end of the incubation periods the cells were washed and taken for a standard [^3H]2-deoxy-D-glucose (dGlc) uptake assay. Uptake values (given for control cells) are in nmol dGlc/mg protein/min. Mean±SEM (n=3-6).
as §1

For another experiment, the system named is glucose transporter. As to the kind of experiment: [3H]dGlc uptake with unlabeled carbohydrates (affinity for the glucose transporter) in C2 myotubes. The class given is cell-based, mouse. The conditions noted are these: 0.1 mM dGlc, increasing unlabeled carbohydrate. How it is done:
FIG. 6: Lack of affinity of D-xylose for the glucose transporters. C2 myotubes preconditioned with 20 mM glucose were subjected to [^3H]dGlc uptake assay (0.1 mM dGlc) with increasing concentrations of unlabeled dGlc, glucose or xylose. The unlabeled carbohydrates were added to the [^3H]dGlc solution in the uptake assay.
The inventors have also determined the affinity of D-xylose for the glucose transporter. C2 myotubes preconditioned with 20 mM glucose were subjected to [^3H]dGlc uptake assay (0.1 mM dGlc) in the presence of increasing concentrations of unlabeled dGlc, glucose or xylose. The results of these experiments are depicted in FIG. 6. The affinity of D-xylose for the glucose transporter is 2 orders of magnitude lower compared to glucose. The final concentration of dGlc in the assay was 0.1 mM.

In another experiment the test system is C2 myotubes. The experiment can be described thus: dGlc uptake assay in C2 myotubes. The class given is cell-based, mouse. The conditions noted are these: 20 mM pentose, preconditioned with 20 mM glucose (FIG. 7). How it is done:
The time-course of D-xylose effect in two types of skeletal muscle cells (L8 myocytes and C2 myotubes) was studied. L8 myocytes and C2 myotubes preconditioned in 20 mM glucose were incubated with 20 mM xylose. After 90 min the cells were washed and incubated with 20 mM glucose, and subjected to a deoxyglucose dGlc uptake assay (14).
The inventors have also measured the effect of different doses of D-xylose in C2 myotubes. C2 myotubes preconditioned with 20 mM glucose received fresh medium containing 20 mM glucose or increasing concentrations of D-xylose. Standard dGlc uptake assay was performed after 1 hr incubation. […] D-xylose augmented the rate of hexose transport ˜2-fold within 1-2 hr; half-maximal stimulation was observed within 20-30 min, as shown in FIG. 2.
However, in the above experiments the cells were exposed to D-xylose after removal of the conditioning glucose concentration. […] The inventors therefore added 20 mM D-xylose to C2 myotubes in the presence of 8 or 16 mM glucose and followed its effect.
It has shown before by the inventors of the present invention that deoxyglucose (dGlc) depresses the hexose transport system in myocytes and that a subsequent incubation with low (even no) glucose fails to reverse this effect of dGlc [Sasson, S et al (1997)]. The inventors have therefore measured the effect of D-xylose on rate of hexose transport following treatment with dGlc. In one experiment, C2 myotubes preconditioned with 2 mM glucose received fresh medium containing 2 mM dGlc. A portion of the cells were washed after 30 min and received 20 MM D-xylose or 2 mM D-glucose, and subjected to a dGlc uptake assay at different time points. In another experiment, L8 myocytes preconditioned with 2 mM glucose were washed and incubated with 2 mM xylose or 2 mM dGlc. A portion of the cells were washed again after 2 hr and incubated with 20 mM xylose, and subjected to a dGlc uptake assay at different time points.
as §1

Another experiment has as its system L6 myotubes. The experiment can be described thus: dGlc uptake assay in L6 myotubes. The class given is cell-based, rat. How it is done: (§2) FIG. 10: Western blot depicting effect of 3-O-propyl-D-xylose (EH-114), and 1,3-O-dimethylxylopyranoside (EH-101) on the total cell content and plasma membrane abundance of GLUT-4 in the absence or presence of insulin. L6 myotubes were maintained for 48 hr at 23 mM Glucose. The cells were than washed and received fresh medium containing the indicated additions and incubated for additional […]. Insulin was added during the last 30 min of incubation before the dGlc uptake assay.
FIG. 11A: Effect of LY-249002, a PI3-kinase inhibitor, on insulin, D-xylose, EH-101 and EH-114-mediated glucose uptake. L6 myotubes were treated as described in the legend to FIG. 10. The glucose concentration in the culture medium was 23.0 mM. The concentration of LY-294002 was 60 μM. At the end of incubation the cells were taken for the standard dGlc uptake assay. Mean±SEM, n=3.
(§3) GLUT-1 and GLUT-4 mediate glucose entry into L6 myotubes. It is established that GLUT-4 is translocated effectively and rapidly to the plasma membrane upon insulin treatment. The inventors looked at the effect of 3-O-propyl-D-xylose EH-114) and 1,3-O-dimethylxylopyranoside (EH-101) on the total cell content and plasma membrane abundance of these transporters in the absence or presence of insulin. L6 myotubes were maintained at 5.0 or 23.0 mM glucose for 48 hr and EH-114 and EH-101 were present during the last 24 hr. The cells were then taken for the standard [^3H]-2-deoxy-D-glucose uptake assay and for the biotinylation procedure for determining the amount of GLUT-1 and GLUT-4 in the plasma membrane. High glucose levels decreased the hexose transport rate by ˜50%. Insulin augmented the transport nearly 2-fold in both cases. EH-114 and EH-101 increased the transport rate 2-3-fold in the absence of insulin. Together with insulin the uptake rate was increased nearly 3-fold.
The inventors also tested the hypothesis that the active D-xylose derivatives augment the hexose transport capacity in L6 myotubes by translocating GLUT-4 to the plasma membrane not via the common insulin-regulated pathway. For this experiment, a selective inhibitor of the enzyme PI3-kinase, LY-249002, which is a key enzyme in the cellular transduction mechanism of insulin, was utilized. […] These findings also agree well with the longer onset of action of these derivatives as compared to the rapid action of insulin. Similar results were obtained when LY-249002 was present together with the derivatives throughout the entire incubation period.
as §1

A further experiment deals with GLUT-4. As to the kind of experiment: Cell surface biotinylation and western blot of GLUT-4 in L6 myotubes. The class given is cell-based, rat. How it is done:
as §2, §3
Surface biotinylation of the cells was performed as previously described [Sasson et al (1997), Diabetologia, 40, 30-398].
(In general: In western blotting, separated proteins are transferred to a membrane and probed.)

On to `COC1OC[C@@H](O)[C@H](O)[C@H]1O` (stereo partly shown) [1-O-methyl xylopyranoside], for which, in experiment [1], the “Fold Increase of Glucose Uptake” value was 1.5 fold; the midpoint of the response, the EC50, lay at 6000 µM; the ECmax turned out to be 10 mM. In addition, in the experiment on 3T3-L1 adipocytes, the “HEXOSE UPTAKE (Percent of Control) Without Insulin” value is listed as 154 ± 4% of Control and the “HEXOSE UPTAKE (Percent of Control) With Insulin” value was 156 ± 24% of Control.

As to `CO[C@H]1C(O)OC[C@@H](O)[C@@H]1O` (stereo partly shown) [2-O-methyl xylopyranose], in the experiment on 3T3-L1 adipocytes, the “HEXOSE UPTAKE (Percent of Control) Without Insulin” value is listed as 63 ± 7% of Control and the “HEXOSE UPTAKE (Percent of Control) With Insulin” value is 73 ± 15% of Control.

Regarding “di-4-(1-O-methyl-xylopyranoside)-phosphoryl-PEG-O-methyl [1-O-methyl D-xylose-PEG]”, in experiment [1], the “Fold Increase of Glucose Uptake” value turned out to be 1.9 fold, the EC50 was 300 µM and the ECmax was found to be 0.6 mM.

`COC1OC[C@@H](OC)[C@H](OC)[C@H]1OC` (stereo partly shown) [1,2,3,4-O-tetramethyl xylopyranoside]: in the experiment with 3T3-L1 adipocytes, the “HEXOSE UPTAKE (Percent of Control) Without Insulin” value is given as 95 ± 7% of Control and the “HEXOSE UPTAKE (Percent of Control) With Insulin” value was 104 ± 8% of Control.

Take `O=CC[C@@H](O)[C@H](O)[C@H](O)CO` [dGlc, 2-deoxy-D-glucose]: the “competition with [3H]dGlc” value with glucose transporter was “competed markedly and similarly”.

For `O=C[C@H](O)[C@H](O)[C@H](O)CO` [D-ribose], the “effect of pentoses on the rate of hexose transport” value in the experiment on C2 myotubes is listed as “to a lesser extent”.

Take `CO[C@H]1[C@H](O)COC(O)[C@@H]1O` (stereo partly shown) [3-O-methyl xylopyranose]: in experiment [1], the “Fold Increase of Glucose Uptake” value was 2.0 fold; the midpoint of the response, the EC50, lay at 2000 µM; the ECmax worked out at 4 mM. In the experiment with 3T3-L1 adipocytes, the “HEXOSE UPTAKE (Percent of Control) Without Insulin” value is reported as 201 ± 30% of Control and the “HEXOSE UPTAKE (Percent of Control) With Insulin” value is 159 ± 7% of Control.

Consider `CCS[C@@H]1OC[C@@H](O)[C@H](O)[C@H]1O` [EH-143, β-ethylthio-D-xylopyranoside], for which the “hexose transport augmenting activity of thioalkyl derivatives” value in experiment [1] is reported as “hexose transport augmenting activity”.

Consider `O=C[C@@H](O)[C@@H](O)[C@H](O)CO` [D-lyxose], for which the “effect of pentoses on the rate of hexose transport” value in the experiment on C2 myotubes was “to a lesser extent”.

On to `CO[C@@H]1COC(O)[C@H](O)[C@H]1O` (stereo partly shown) [4-O-methyl xylopyranose], for which, in the experiment with 3T3-L1 adipocytes, the “HEXOSE UPTAKE (Percent of Control) Without Insulin” value is listed as 72 ± 112% of Control and the “HEXOSE UPTAKE (Percent of Control) With Insulin” value was 111 ± 2% of Control.

Take `CCSC(SCC)C1OC(c2ccccc2)OC(CO)C1OC` [EH-169, 3-O-methyl-2,4-O-benzylidene-D-xylose-diethyl-dithioacetal]: the figures for the “increase of [3H]-2-deoxy-D-glucose uptake” value with L6 myotubes (60 μM) and with L6 myotubes (120 μM) were 1.8 fold and 2 fold, respectively.

Consider `CCO[C@@H]([C@H](O)CO)[C@@H](O)C=O` [3-O-ethyl D-xylose], for which, in experiment [1], the “Fold Increase of Glucose Uptake” value amounted to 2.3 fold, a half-maximal response (EC50) required 1300 µM and the ECmax worked out at 4 mM.

Turning to `COC1OC[C@@H](O)[C@H](OC)[C@H]1O` (stereo partly shown) [EH-101, 1,3-O-dimethyl xylopyranoside], the “total cell content of GLUT-4” value with GLUT-4 (L6 cells exposed to 23.0 mM glucose (FIG. 10)) is listed as “increased the total content of the transporter”. Also, the “translocation of GLUT-4 to the plasma membrane” value in the experiment with GLUT-4 (L6 myotubes, xylose derivatives in the absence of insulin, insulin 500 nM (FIG. 10)) was “induced significant translocation of GLUT-4 to the plasma membrane”. Moreover, in experiment [1], the “Fold Increase of Glucose Uptake” value was 3.0 fold, the EC50 stood at 2000 µM and the ECmax is reported as 4 mM. Besides, the “duration of activity following removal from the culture media” value in experiment [1] (after being washed from cell cultures) was determined as 24 h. Also, the “effect of PI3-kinase inhibitor LY-249002 on the substance's stimulation of hexose transport” value with L6 myotubes (60 μM inhibitor, 23.0 mM glucose (FIG. 11A), EH-40 data not shown) was “failed to affect”. For the same molecule, in the experiment with L6 myotubes (L6 myotubes, compound during last 24 hr plus insulin), the “increase of uptake rate together with insulin” value is approximately 3 fold. Further, in the experiment on 3T3-L1 adipocytes, the “HEXOSE UPTAKE (Percent of Control) Without Insulin” value is 267 ± 57% of Control and the “HEXOSE UPTAKE (Percent of Control) With Insulin” value is 174 ± 28% of Control.

`COC[C@H]1OC(O)[C@H](O)[C@H]1O` (stereo partly shown) [5-O-methyl xylofuranose]: in the experiment on 3T3-L1 adipocytes, the “HEXOSE UPTAKE (Percent of Control) Without Insulin” value is reported as 70 ± 5% of Control and the “HEXOSE UPTAKE (Percent of Control) With Insulin” value was 53 ± 22% of Control.

For the molecule `COC(OC)[C@@H]1OC(c2ccccc2)O[C@@H]2COC(c3ccccc3)O[C@@H]21` (stereo partly drawn) [EH-3, 2,4:3,5-di-O-benzylidene-D-xylose-dimethylacetal], in experiment [1], the “Fold Increase of Glucose Uptake” value is reported as 1.7 fold, the EC50 stood at 125 µM and the ECmax came to 0.3 mM.

Usually EC50 stands for the concentration that produces a half-maximal response. Lower therefore signals an effect from little substance.

For the origin of these results see patent US7812142B2, “Pentose derivatives as anti-hyperglycemic drugs” (Yissum Research Development Company of the Hebrew …, priority 2002, dated 2010).
